Measurements taken from patent US4775677A, “[3-substituted-2-(substituted imino)-4-oxo-5-thiazolidinylidene]acetic acids having activity as leukotriene antagonists” (Warner-Lambert Company, priority 1987, dated 1988).

Target: leukotriene receptor
Assay: leukotriene receptor binding assay (RBL-1)
Conditions: Bruns et al
From the text: The usefulness of the compounds of Formula I is particularly directed to the treatment of humans. By virtue of the activity of the compounds having the Formula I of the present invention as antagonists of Slow Reacting Substance of Anaphylaxis (leukotrienes C, D, and E) are useful in the treatment of allergic rhinitis, asthma, bronchitis, and urticaria. They are also particularly useful for the treatment of cardiovascular diseases mediated by leukotrienes, C, D, and E. See B. Samuelsson, "Leukotrienes: Mediators of Immediate Hypersensitivity Reactions and Inflammation,"Science, Vol. 220, p. 568 (1983); P. J. Piper, "Leukotrienes," Trends in Pharmaceutic Sciences, pp. 75-77 (1983; and J. L. Romson, et al, "Reduction of the Extent of Ischemic Myocardial Injury by Neutrophil Depletion in the Dog," Circulation, Vol. 67, p. 1016 (1983). The activity of the compounds I of the present invention is determined in a leukotriene receptor binding assay (RBL-1) described by R. F. Bruns, W. J. Thomsen, and T. A. Pugsley in Life Sciences, 33, p. 645 (1983).
When tested by the procedures in a leukotriene receptor binding assay (RBL-1) as described by Bruns et al cited above, the compounds of the Formula I as defined in the present invention have the indicated activity as shown in Table 5 as IC50 values expressed in μMs (micromolar).

Compound	IC50 [µM]
COc1cc(N=C2SC(=CC(=O)O)C(=O)N2c2cc(OC)c(OC)c(OC)c2)cc(OC)c1OC [Example 6, [4-Oxo-3-(3,4,5-trimethoxyphenyl)-2-[(3,4,5-trimethoxyphenyl)imino]-5-thiazolidinylidene]acetic acid]	> 100
CCCCCCN1C(=O)C(=CC(=O)O)SC1=Nc1cccc2ccccc12 [Example 17, [3-Hexyl-2-[(1-naphthalenyl)imino]-4-oxo-5-thiazolidinylidene]acetic acid]	10.3
CCCCCCCN=C1SC(=CC(=O)O)C(=O)N1CCCCCCC [Example 18, [3-Heptyl-2-(heptylimino)-4-oxo-5-thiazolidinylidene]acetic acid]	12.7
CCCN=C1SC(=CC(=O)O)C(=O)N1CCC [Example 8, [4-Oxo-3-propyl-2-(propylimino)-5-thiazolidinylidene]acetic acid]	> 100
O=C(O)C=C1SC(=NC2CCCCC2)N(C2CCCCC2)C1=O [Example 25, [3-Cyclohexyl-2-(cyclohexylimino)-4-oxo-5-thiazolidinylidene]acetic acid]	62.5
CCCCCCCCCCN=C1SC(=CC(=O)O)C(=O)N1CCCCCCCCCC [Example 19, [3-Decyl-2-(decylimino)-4-oxo-5-thiazolidinylidene]acetic acid]	> 100
CCCCCCN=C1SC(=CC(=O)O)C(=O)N1CCCCCC [Example 4, [3-Hexyl-2-(hexylimino)-4-oxo-5-thiazolidinylidene]acetic acid]	24.5
CCCCCCN1C(=O)C(=CC(=O)O)SC1=Nc1ccccc1 [Example 13, [3-Hexyl-4-oxo-2-(phenylimino)-5-thiazolidinylidene]acetic acid]	39.2
CCCCN=C1SC(=CC(=O)O)C(=O)N1CCCC [Example 9, [3-Butyl-2-(butylimino)-4-oxo-5-thiazolidinylidene]acetic acid]	> 100
CN1C(=O)C(=CC(=O)O)SC1=Nc1ccc(Cl)c(Cl)c1 [Example 12, [2-[(3,4-dichlorophenyl)imino]-3-methyl-4-oxo-5-thiazolidinylidene]acetic acid]	> 100
CCCCCCCCN=C1SC(=CC(=O)O)C(=O)N1CCCCCCCC [Example 1, [3-Octyl-2-(octylimino)-4-oxo-5-thiazolidinylidene]acetic acid]	19
O=C(O)C=C1SC(=Nc2ccc(Cl)c(Cl)c2)N(c2ccc(Cl)c(Cl)c2)C1=O [Example 21, [4-oxo-3-(3,4-dichlorophenyl)-2-[(3,4-dichlorophenyl)imino]-5-thiazolidinylidene]acetic acid]	15.6
O=C(O)C=C1SC(=Nc2cc(Cl)c(Cl)c(Cl)c2)N(c2cc(Cl)c(Cl)c(Cl)c2)C1=O [Example 23]	13.1
CCCCCCCCCCCN=C1SC(=CC(=O)O)C(=O)N1CCCCCCCCCCC [Example 16, [3-Undecyl-2-(undecylimino)-4-oxo-5-thiazolidinylidene]acetic acid]	> 100
CCCCCN=C1SC(=CC(=O)O)C(=O)N1CCCCC [Example 3, [3-Pentyl-2-(pentylimino)-4-oxo-5-thiazolidinylidene]acetic acid]	15.4
COc1ccccc1N=C1SC(=CC(=O)O)C(=O)N1c1ccccc1OC [Example 10, [3-(2-Methoxyphenyl)-2-[(2-methoxyphenyl)imino]-4-oxo-5-thiazolidinylidene]acetic acid]	> 100
CCCCCCN1C(=O)C(=CC(=O)O)SC1=Nc1ccc(Cl)c(Cl)c1 [Example 11, [2-[(3,4-dichlorophenyl)imino]-3-hexyl-4-oxo-5-thiazolidinylidene]acetic acid]	12.2
O=C(O)C=C1SC(=NCCc2ccccc2)N(CCc2ccccc2)C1=O [Example 15, [4-Oxo-3-(2-phenylethyl)-2-[(2-phenylethyl)imino]-5-thiazolidinylidene]acetic acid]	> 100
O=C(O)C=C1SC(=Nc2ccc(Br)c(Br)c2)N(c2ccc(Br)c(Br)c2)C1=O [Example 22, [4-Oxo-3-(3,4-dibromophenyl)-2-[(3,4-dibromophenyl)imino]-5-thiazolidinylidene]acetic acid]	18.9
COc1cccc(N=C2SC(=CC(=O)O)C(=O)N2c2cccc(OC)c2)c1 [Example 24, [3-(3-Methoxyphenyl)-2-[(3-methoxyphenyl)imino]-4-oxo-5-thiazolidinylidene]acetic acid]	> 100
CCCCCCCCCCCCN=C1SC(=CC(=O)O)C(=O)N1CCCCCCCCCCCC [Example 20, [3-Dodecyl-2-(dodecylimino)-4-oxo-5-thiazolidinylidene]acetic acid]	> 100
CCN=C1SC(=CC(=O)O)C(=O)N1CC [Example 2, [3-Ethyl-2-(ethylimino)-4-oxo-5-thiazolidinylidene]acetic acid]	> 100
COc1ccc(N=C2SC(=CC(=O)O)C(=O)N2c2ccc(OC)cc2)cc1 [Example 7, [4-Oxo-3-(4-methoxyphenyl)-2-[(4-methoxyphenyl)imino]-5-thiazolidinylidene]acetic acid]	> 100
